Measured values as given in PMC3757949 (Nature medicine, 2012).

Assays:
DIO mice = assay: Body weight in diet-induced obese; assay type: in vivo; conditions: DIO male mice
GLP-1R [1] = molecular target: T1, GLP-1R (Homo sapiens, UniProt P43220); assay: GLP-1R activation, CRE-luciferase reporter gene assay in HEK 293 cells; assay type: cell-based
MCF-7 xenografts = assay: Tumor growth in MCF-7 xenograft OVX nude mice; assay type: in vivo; conditions: for volume of harvested tumors / weight of harvested tumors: after 9 weeks of treatment, mean ± s.e.m.; for tumor incidence at day 68: conjugates 4,000 μg per kg body weight daily, estradiol as s.c. pellet
ERα and ERβ = assay type: cell-based, human
GLP-1R [2] = molecular target: T1, GLP-1R; assay: GLP-1R competitive binding
[3] = Conjugate degradation analysis in human plasma; assay type: in vitro ADME; conditions: pH 7.4, 37 °C

T1 sequence (P43220 24-463, species assumed): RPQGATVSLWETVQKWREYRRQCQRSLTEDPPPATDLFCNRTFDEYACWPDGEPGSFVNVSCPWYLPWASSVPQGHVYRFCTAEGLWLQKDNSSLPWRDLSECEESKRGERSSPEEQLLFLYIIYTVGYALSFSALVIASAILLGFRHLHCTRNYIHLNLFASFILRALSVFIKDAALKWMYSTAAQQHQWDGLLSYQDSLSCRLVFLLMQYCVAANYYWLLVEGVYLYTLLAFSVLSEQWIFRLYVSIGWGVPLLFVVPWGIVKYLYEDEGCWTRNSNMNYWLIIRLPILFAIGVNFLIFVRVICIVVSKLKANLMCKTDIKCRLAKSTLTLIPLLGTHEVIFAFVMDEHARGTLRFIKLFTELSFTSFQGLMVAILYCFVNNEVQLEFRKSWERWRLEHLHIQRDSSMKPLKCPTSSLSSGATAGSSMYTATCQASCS

Row | EC50 (ERα and ERβ; read-out: EC50, intracellular estrogen activity (ERE-mediated transcriptional activity), mean ± s.d.) | SMILES | body weight loss (DIO mice; 400 μg per kg body weight daily s.c., 14 d (Fig. 5d)) | fold lower GLP-1R potency in presence of plasma (GLP-1R [1]; 20% human plasma versus no plasma) | volume of harvested tumors (MCF-7 xenografts) | weight of harvested tumors (MCF-7 xenografts) | tumor incidence at day 68 (MCF-7 xenografts) | decrease in body weight (DIO mice; 400 μg per kg body weight daily s.c., 2 weeks) | body weight at end of treatment (DIO mice; 400 μg per kg body weight daily s.c., 2 weeks, mean ± s.e.m.) | body weight at start of treatment (DIO mice; 400 μg per kg body weight, mean ± s.e.m.) | GLP-1R biochemical signaling potency (EC50) compared to parent peptide (GLP-1R [1]) | intracellular estrogen activity compared to estrone (ERα and ERβ; cells do not express GLP-1R) | GLP-1R binding affinity (IC50) compared to parent peptide (GLP-1R [2]) | time to complete degradation with release of estrogen [3]
1 | – | CCCCCCCCCCCCCCCC(=O)N[C@@H](CCC(=O)N[C@@H](CCC(=O)NCCCC[C@H](NC(=O)[C@H](CO)NC(=O)[C@@H]1CCCN1C(=O)[C@@H]1CCCN1C(=O)[C@@H]1CCCN1C(=O)[C@H](C)NC(=O)CNC(=O)[C@H](CO)NC(=O)[C@H](CO)NC(=O)[C@@H]1CCCN1C(=O)CNC(=O)CNC(=O)[C@H](CCCCN)NC(=O)[C@@H](NC(=O)[C@H](CC(C)C)NC(=O)[C@H](Cc1c[nH]c2ccccc12)NC(=O)[C@H](C)NC(=O)[C@@H](NC(=O)[C@H](Cc1ccccc1)NC(=O)[C@H](CCC(=O)O)NC(=O)[C@H](CCCCN)NC(=O)[C@H](C)NC(=O)[C@H](C)NC(=O)[C@H](CCC(N)=O)NC(=O)[C@H](CCC(=O)O)NC(=O)[C@H](CCC(=O)O)NC(=O)[C@H](CC(C)C)NC(=O)[C@H](Cc1ccc(O)cc1)NC(=O)[C@H](CO)NC(=O)[C@H](CO)NC(=O)[C@@H](NC(=O)[C@H](CC(=O)O)NC(=O)[C@H](CO)NC(=O)[C@@H](NC(=O)[C@H](Cc1ccccc1)NC(=O)[C@@H](NC(=O)CNC(=O)[C@H](CCC(=O)O)NC(=O)C(C)(C)NC(=O)[C@@H](N)Cc1c[nH]cn1)[C@@H](C)O)[C@@H](C)O)C(C)C)[C@@H](C)CC)C(C)C)C(N)=O)C(=O)O)C(=O)O [acylated GLP-1 analog] | 30.1% | ~ 400 fold | – | – | – | – | – | – | – | – | – | –
2 | 4 ± 1 pM | C[C@]12CC[C@@H]3c4ccc(O)cc4CC[C@H]3[C@@H]1CC[C@@H]2O [estradiol, 17β-estradiol, reference compound] | – | – | 1,461.2 ± 584.3 mm^3 | 779.7 ± 257.7 mg | 100% | – | – | – | – | – | – | –
3 | – | CC[C@H](C)[C@H](NC(=O)[C@H](Cc1ccccc1)NC(=O)[C@H](CCC(=O)O)NC(=O)[C@H](CCCCN)NC(=O)[C@H](C)NC(=O)[C@H](C)NC(=O)[C@H](CCC(N)=O)NC(=O)[C@H](CCC(=O)O)NC(=O)[C@H](CCC(=O)O)NC(=O)[C@H](CC(C)C)NC(=O)[C@H](Cc1ccc(O)cc1)NC(=O)[C@H](CO)NC(=O)[C@H](CO)NC(=O)[C@@H](NC(=O)[C@H](CC(=O)O)NC(=O)[C@H](CO)NC(=O)[C@@H](NC(=O)[C@H](Cc1ccccc1)NC(=O)[C@@H](NC(=O)CNC(=O)[C@H](CCC(=O)O)NC(=O)C(C)(C)NC(=O)[C@@H](N)Cc1c[nH]cn1)[C@@H](C)O)[C@@H](C)O)C(C)C)C(=O)N[C@@H](C)C(=O)N[C@@H](Cc1c[nH]c2ccccc12)C(=O)N[C@@H](CC(C)C)C(=O)N[C@H](C(=O)N[C@@H](CCCCN)C(=O)NCC(=O)NCC(=O)N1CCC[C@H]1C(=O)N[C@@H](CO)C(=O)N[C@@H](CO)C(=O)NCC(=O)N[C@@H](C)C(=O)N1CCC[C@H]1C(=O)N1CCC[C@H]1C(=O)N1CCC[C@H]1C(=O)N[C@@H](CO)C(=O)N[C@@H](CCCCNC(=O)CCC(=O)Oc1ccc2c(c1)CC[C@@H]1[C@@H]2CC[C@]2(C)C(=O)CC[C@@H]12)C(N)=O)C(C)C [labile GLP-1–estrogen conjugate] | – | – | 92.1 ± 23.8 mm^3 | 37.0 ± 9.0 mg | 100% | 7.5% | 50.0 ± 1.1 g | 54.1 ± 0.9 g | matched the parent peptides | comparable intracellular estrogen activity to estrone | matched the parent peptides | ≤ 6 h
